Laboratory results from US20160067248A1, “COMBINATIONS” (GlaxoSmithKline Intellectual Property Development Limited, priority 2011, published 2016).

Columns and labels:
[1] = test system: SKOV3-Ip1 / HeyA8 tumor xenograft; assay: Combination study, intraperitoneal ovarian tumor xenograft models in nude mice; assay type: in vivo; settings: pazopanib 100 mg/kg oral daily
Experimental: Tumor cells were injected intraperitoneally into nude mice. For the first study, mice were inoculated with 1,000,000 SKOV3-Ip1 cells. For the second study, mice were inoculated with 250,000 HeyA8 cells. At the time of inoculation, mice were randomized into groups to be treated by oral gavage and intraperitoneal injection. The animals were grouped as described below. The criteria for end point was animals in any group being moribund. At the time of dissection, animals were sacrificed by cervical dislocation and necropsy immediately performed. Tumor nodules were counted and aggregate tumor weight (g) was recorded. Tumors were fixed in 10% formalin, and fresh tumor was flash-frozen for future analysis.
The goal of this study was to determine the in vivo effects of each of pazopanib, the FAK inhibitor, and docetaxel, alone and in combinations. Nude mice were inoculated with tumor as described above and randomized to the groups below. The following doses of each inhibitor were used: FAK-inhibitor, 75 mg/kg, oral, daily; pazopanib, 100 mg/kg, oral, daily; docetaxel, 35 ug, IP, weekly. […] Tumor nodules were counted and aggregate tumor weight (g) was recorded. […]
In vitro dose-response, in vivo tumor growth and scoring of the immunohistochemistry are presented as mean±Standard Error. Statistical significance was assessed by student's T-test and P≦0.05 was considered to be significant. […]

[2] = target: T1, FAK phosphorylation at Y397 (pFAK^Y397) (Homo sapiens, UniProt Q05397); assay: FAK phosphorylation at Y397 (pFAK Y397) in ovarian cancer cells; assay type: cell-based
T1 construct: endogenous in cells; host or cells: SKOV3-IP1 and HeyA8 cells
T1 sequence (Q05397 whole entry): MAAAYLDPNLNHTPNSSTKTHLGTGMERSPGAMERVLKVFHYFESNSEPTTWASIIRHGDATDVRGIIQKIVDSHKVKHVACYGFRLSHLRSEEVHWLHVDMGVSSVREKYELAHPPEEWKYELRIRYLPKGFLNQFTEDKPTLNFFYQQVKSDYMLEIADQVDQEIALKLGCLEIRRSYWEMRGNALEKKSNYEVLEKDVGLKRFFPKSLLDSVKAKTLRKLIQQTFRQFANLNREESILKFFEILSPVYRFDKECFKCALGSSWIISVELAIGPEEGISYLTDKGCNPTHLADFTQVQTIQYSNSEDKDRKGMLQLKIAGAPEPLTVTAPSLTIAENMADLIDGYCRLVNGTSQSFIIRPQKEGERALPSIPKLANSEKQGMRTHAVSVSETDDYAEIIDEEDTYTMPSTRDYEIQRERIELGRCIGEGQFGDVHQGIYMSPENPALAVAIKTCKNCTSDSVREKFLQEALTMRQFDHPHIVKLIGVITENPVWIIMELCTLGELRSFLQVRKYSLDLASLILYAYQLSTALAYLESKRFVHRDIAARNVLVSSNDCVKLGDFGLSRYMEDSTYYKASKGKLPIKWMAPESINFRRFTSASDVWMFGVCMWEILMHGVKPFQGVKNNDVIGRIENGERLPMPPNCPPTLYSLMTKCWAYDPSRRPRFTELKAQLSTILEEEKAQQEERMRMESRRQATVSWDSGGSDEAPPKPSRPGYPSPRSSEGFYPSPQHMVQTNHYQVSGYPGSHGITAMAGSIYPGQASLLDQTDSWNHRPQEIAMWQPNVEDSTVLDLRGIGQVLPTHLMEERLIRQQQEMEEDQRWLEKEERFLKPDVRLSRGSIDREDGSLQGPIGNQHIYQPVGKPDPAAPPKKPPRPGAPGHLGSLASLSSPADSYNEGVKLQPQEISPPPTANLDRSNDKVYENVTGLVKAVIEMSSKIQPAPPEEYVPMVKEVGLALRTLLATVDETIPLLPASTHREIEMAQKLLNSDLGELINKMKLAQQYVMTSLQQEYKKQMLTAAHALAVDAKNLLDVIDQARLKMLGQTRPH

[3] = test system: SKOV3-IP1 cells; assay: Invasion of SKOV3-IP1 cells; assay type: cell-based, human; settings: p<0.001
[4] = test system: SKOV3-IP1 cells; assay: Migration of SKOV3-IP1 cells; assay type: cell-based, human; settings: p<0.001

| levels of FAK phosphorylation at Y397 (pFAK^Y397) ([2]; HeyA8 cells, 10 μM) | levels of FAK phosphorylation at Y397 (pFAK^Y397) ([2]; SKOV3-IP1 cells, 1 μM concentration) | Compound | decrease of MVD ([1]; p<0.01) [%] | reduction in invasion [3] [%] | reduction in migration [4] [%] | decrease in mean tumor weight compared to control ([1]; nude mice, i.p. tumor, FAK-inhibitor 75 mg/kg oral daily, docetaxel 35 ug IP weekly) [%] |
| --- | --- | --- | --- | --- | --- | --- |
|  |  | Cc1ccc(Nc2nccc(N(C)c3ccc4c(C)n(C)nc4c3)n2)cc1S(N)(=O)=O [pazopanib, 5-[[4-[(2,3-dimethyl-2H-indazol-6-yl)methylamino]-2-pyrimidinyl]amino]-2-methylbenzenesulfonamide, reference compound] | 49 |  |  |  |
| reduced levels | reduced levels | CONC(=O)c1ccccc1Nc1cc(Nc2cc(C)nn2C(C)C)ncc1Cl [FAK-inhibitor, 2-[(5-chloro-2-[[3-methyl-1-(1-methylethyl)-1H-pyrazol-5-yl]amino]-4-pyridinyl)amino]-N-methoxybenzamide] |  | 12.5 | 54 | 58 |
